Assay results from article PMC11990670, “Exploring the Volatility, Phase Transitions, and Solubility Properties of Five Halogenated Benzaldehydes” (Molecules, 2025).
Converted amounts (≈) assume the structure as drawn.

How the values were obtained:
[1] = Equilibrium solubility in water, saturation shake-flask method with UV-vis; settings: 25 °C, thermodynamic from solid
Method: (§1) The concentration was measured by absorbances at 260 nm for 4-chlorobenzaldehyde, 263 nm for 4-bromobenzaldehyde and 2,4-dichlorobenzaldehyde, 297 nm for 2,6-dichlorobenzaldehyde, and 306 nm for 2,3-dichlorobenzaldehyde, using a Cary-60 UV–vis (Agilent) spectrophotometer. X-ray diffraction (XRD) and differential scanning calorimetry of residual solids were used to identify the eventual phase transformations. The purified samples of each compound studied were used for all experimental determinations, including the solubility measurements. After reaching the equilibrium, the residual solid was dried and analyzed using both DSC and XRD. The melting properties obtained from DSC were compared with those of the original purified sample, following the same procedure for the XRD analysis. […] As an example, the supporting information includes two thermograms and two XRD patterns for 2,4-dichlorobenzaldehyde (Figures S1 and S2). […] Equation (4) was derived from Equation (5), which is widely applicable to the solubility of solids.(4) ΔhydrGm°/kJ·mol^−1=9.17−5.71·log10(Scr/mol·m^−3)−ΔcrgGm°/kJ·mol^−1 (5) S=p^°/RTexpΔcrgGm°+ΔhydrGm°/−RT
An excess amount of each compound was added to a known volume of water in triplicate. […] After stirring, the solid phase was allowed to settle for 2 h. The pH of the saturated solutions was measured using a Mettler Toledo (Greifensee, Switzerland) FiveEasy F20 pH Meter calibrated with standard aqueous solutions (pH 7.00 and 4.01 or 10.1). Those solutions were then filtered through a 0.22 μm syringe hydrophilic filter (13 mm, PTFE, Labfil, Zhejiang, China) and diluted to the required concentration. The concentration of the compounds, expressed in molarity, was measured by absorbances using a Cary-60 UV–vis spectrophotometer (Agilent Technologies, Santa Clara, CA, USA) at 298.15 K (single cell Peltier accessory, ±0.15 K). The results reported in Table 6 are averaged from at least three replicates. Calibration was performed using solutions of known concentrations of each substance in water. These solutions were prepared by adding a precise mass of the substance and a specific volume of the solvent to a flask, then mixing until the substance was fully dissolved. The absorbance of these solutions was measured, and calibration curves were created.

[2] = Thermodynamic properties of sublimation and vaporization from Clarke and Glew fit of vapor pressures
Text: The experimental crystalline and liquid vapor pressures were independently fitted by the Clarke and Glew Equation (1) in its truncated form:(1) Rlnp/p^°=−ΔcdgGm°θ/θ+ΔcdgHm°θ1/θ−1/T+ΔcdgCp,m°θθ/T−1+lnT/θ where R is the molar gas constant, p is the vapor pressure at the temperature T, p° is a selected reference pressure (p° = 10^5 Pa in this work), and θ is a reference temperature. The differences between gaseous and condensed phases of standard molar Gibbs energy, enthalpy, and the isobaric heat capacity are represented, respectively, by ΔcdgGm° , ΔcdgHm° , and ΔcdgCp,m° .
The values of ΔcdgCp,m° are generally achieved only when accurate experimental data measured over ca. 50 K are reachable. […] For comparison reasons, the values of ΔcrgCp,m° were also calculated as ΔcrgCp,m°(θ)=Cp,m°(g)−Cp,m°(cr) , where the terms Cp,m°(g) and Cp,m°(cr) are, respectively, the gas and crystalline isobaric molar heat capacities. […] The crystalline molar heat capacities, Cp,m°(cr) , were determined at different temperatures using differential scanning calorimetry, enabling the fit to second-order polynomials in temperature, represented by Equation (3) and reported in Table 3. […] The values of Cp,m°(cr,298.15 K) were derived from these equations, allowing ΔcrgCp,m°(298.15 K) to be calculated.

[3] = Gibbs energy of hydration and Henry's law volatility constant calculated from sublimation and solubility data; settings: 25 °C
Method: as §1
The standard states in Equation (5) are p° = 1 × 10^5 Pa for ΔcrgGm° , c° = 1 mol·L^−1 for ΔhydrGm° and s° = 1 mol·m^−3 for solubility. Using the experimental results of ΔhydrGm° , calculated through Equation (4), the values of Henry’s law volatility constants, KHpc, were determined in the logarithm form by Equation (6), that was adapted from Modarressi et al..

[4] = crystalline phase, θ = 291.18 K (mean temperature)
[5] = crystalline phase, θ = 298.15 K, p° = 10^5 Pa
[6] = crystalline phase, θ = 319.43 K (triple point)
[7] = liquid phase including supercooled liquid, θ = 298.15 K, p° = 10^5 Pa
[8] = liquid phase, θ = 319.43 K (triple point)
[9] = liquid phase, θ = 331.52 K (mean temperature)

- solubility at 72 h [1]: 8.83 mM (≈ 1240 µg/mL)
- triple point pressure ptp ([2]; Ttp = 319.43 K): 1.23 × 10^2 Pa
- p (Equation (1)) vapor pressure [2, 4]: 8.54 Pa
- ΔcdgGm°(θ) standard molar Gibbs energy of sublimation [2, 4]: 5.421 ± 0.0024 kcal/mol
- ΔcdgHm°(θ) standard molar enthalpy of sublimation [2, 4]: 17.6 ± 0.024 kcal/mol
- p (Equation (1)) vapor pressure ([2]; crystalline phase, θ = 298.15 K): 17.3 Pa
- ΔcdgGm°(θ) standard molar Gibbs energy of sublimation [2, 5]: 5.131 ± 0.0024 kcal/mol
- ΔcdgHm°(θ) standard molar enthalpy of sublimation [2, 5]: 17.5 ± 0.048 kcal/mol
- ΔcdgSm°(θ) (Equation (2)) standard molar entropy of sublimation [2, 5]: 173.8 ± 0.7 J·K^−1·mol^−1
- p (Equation (1)) vapor pressure [2, 6]: 123 Pa
- ΔcdgGm°(θ) standard molar Gibbs energy of sublimation [2, 6]: 4.252 ± 0.0048 kcal/mol
- ΔcdgHm°(θ) standard molar enthalpy of sublimation [2, 6]: 17.4 ± 0.14 kcal/mol
- p (Equation (1)) vapor pressure ([2]; liquid phase including supercooled liquid, θ = 298.15 K): 27.3 Pa
- ΔcdgGm°(θ) standard molar Gibbs energy of vaporization [2, 7]: 4.861 ± 0.0072 kcal/mol
- ΔcdgHm°(θ) standard molar enthalpy of vaporization [2, 7]: 13.6 ± 0.14 kcal/mol
- ΔcdgSm°(θ) (Equation (2)) standard molar entropy of vaporization [2, 7]: 122.0 ± 2.0 J·K^−1·mol^−1
- p (Equation (1)) vapor pressure [2, 8]: 123 Pa
- ΔcdgGm°(θ) standard molar Gibbs energy of vaporization [2, 8]: 4.252 ± 0.0048 kcal/mol
- ΔcdgHm°(θ) standard molar enthalpy of vaporization [2, 8]: 13.2 ± 0.048 kcal/mol
- p (Equation (1)) vapor pressure [2, 9]: 262 Pa
- ΔcdgGm°(θ) standard molar Gibbs energy of vaporization [2, 9]: 3.917 ± 0.0024 kcal/mol
- ΔcdgHm°(θ) standard molar enthalpy of vaporization [2, 9]: 13 ± 0.024 kcal/mol
- Gibbs energy of hydration ΔhydrGm° ([3]; calculated by Equation (4)): -4.23 kcal/mol
- log10(KHpc/kPa·m^3·mol^−1) Henry's law volatility constant ([3]; calculated by Equation (6)): −2.71
- KHpc×10^3 Henry's law volatility constant ([3]; value is KHpc multiplied by 10^3): 1.95 kPa·m^3·mol^−1
SMILES: O=Cc1ccc(Cl)cc1 [4-Chlorobenzaldehyde]
